We go through 3 compounds from US20230263710A1, “ORAL CARE AGENT” (OSAKA UNIVERSITY, priority 2020, published 2023).

Like-named read-outs stand apart in the source and are kept apart here.

This assay is described as follows: Lewis acidity measuring method (1): reaction rate constant of reaction between CoTPP and oxygen in the presence of a Lewis acid. The format is physicochemical.

On to `CCCC[N+](CCCC)(CCCC)CCCC.F[P-](F)(F)(F)(F)F` [tetrabutylammonium hexafluorophosphate], for which the “kcat (reaction rate constant of reaction between CoTPP and oxygen in the presence of a Lewis acid)” value (shortened to “kcat”) is reported as above 0.1 M^−2 s^−1.

benzalkonium chloride: under “acetonitrile, saturated O2, room temperature”, the “kcat” value was 0.18 M^−2 s^−1. For benzethonium chloride, the “kcat” value came out at 0.24 M^−2 s^−1.
